Measurements as given in ChEMBL document CHEMBL1122684, “The 3,4-catechol derivative of propranolol, a minor dihydroxylated metabolite” (J Med Chem, 1984).
Counter-ions that a name gives are not always drawn.

Assays:
[1] = molecular target: Beta-1 adrenergic receptor (Cavia porcellus, UniProt B0FL73); assay: Compound was evaluated for competitive antagonism of beta-1 adrenergic receptor in guinea pig atria measured as pA2 (-log KB); format: functional; conditions: read-out: pA2 (converted)
[2] = molecular target: Beta-2 adrenergic receptor (Rattus norvegicus) (UniProt P10608); assay: Compound was evaluated for competitive antagonism of beta-2 adrenergic receptor in rat uterus measured as pA2 (-log KB)
Sequence of Beta-2 adrenergic receptor (Rattus norvegicus) (P10608 whole entry, looked up): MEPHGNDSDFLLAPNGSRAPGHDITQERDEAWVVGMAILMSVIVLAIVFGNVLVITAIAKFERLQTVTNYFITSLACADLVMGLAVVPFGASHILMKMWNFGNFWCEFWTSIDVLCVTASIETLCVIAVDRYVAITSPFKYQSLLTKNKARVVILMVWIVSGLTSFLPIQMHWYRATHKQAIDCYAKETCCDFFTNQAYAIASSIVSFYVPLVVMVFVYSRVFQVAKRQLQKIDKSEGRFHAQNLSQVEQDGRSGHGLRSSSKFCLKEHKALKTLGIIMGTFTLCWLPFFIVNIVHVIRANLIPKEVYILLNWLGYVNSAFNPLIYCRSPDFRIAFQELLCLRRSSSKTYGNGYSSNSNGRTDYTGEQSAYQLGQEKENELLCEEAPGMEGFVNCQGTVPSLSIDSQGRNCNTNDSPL

Sequence of Beta-1 adrenergic receptor (B0FL73 whole entry): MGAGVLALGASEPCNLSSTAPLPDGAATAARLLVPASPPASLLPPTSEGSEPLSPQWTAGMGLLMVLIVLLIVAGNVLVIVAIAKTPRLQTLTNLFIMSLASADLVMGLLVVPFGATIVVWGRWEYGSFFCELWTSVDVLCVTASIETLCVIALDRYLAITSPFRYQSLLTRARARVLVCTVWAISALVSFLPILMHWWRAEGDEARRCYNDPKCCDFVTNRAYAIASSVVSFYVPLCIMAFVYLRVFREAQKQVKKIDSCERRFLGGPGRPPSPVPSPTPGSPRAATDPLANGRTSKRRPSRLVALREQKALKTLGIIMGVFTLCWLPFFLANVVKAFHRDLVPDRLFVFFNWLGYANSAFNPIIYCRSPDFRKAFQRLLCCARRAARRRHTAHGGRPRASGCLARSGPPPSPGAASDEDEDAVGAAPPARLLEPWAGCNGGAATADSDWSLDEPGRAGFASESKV

SMILES	Kb [1] [nM]	Kb [2] [nM]
CC(C)NCC(O)COC1=CC(=O)C(=O)c2ccccc21 (centres undefined)	50.1	29.5
CC(C)NCC(O)COc1ccc(O)c2ccccc12 (centres undefined) [4-HYDROXYPROPRANOLOL SULFATE]	5.75	2.4
